Results on 30 compounds are retold here after PubChem BioAssay (NCI).

Holding throughout (experiment): NCI anticancer screen, dose series, 48 h
Assay [1] relates to SK-MEL-5 melanoma.
In assay [2] the test system is MOLT-4 leukemia.
Assay [3] relates to SW-620 colon.
The subject of assay [4] is COLO 205 colon.
Assay [5] deals with NCI-H460 lung.
For assay [6], the system named is KM12 colon.
Assay [7] has as its system RPMI-8226 leukemia.
The subject of assay [8] is HS 578T breast.
Assay [9] deals with U251 CNS.
The test system of assay [10] is SNB-75 CNS.

The structures appear in SMILES notation.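 Results reflect a 48-hour exposure of cells in 96-well plates to compound at five concentrations. At the TGI there is no net growth.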 Where a SMILES comes first, the peptide text is derived from it. The star is where a group is joined. Boc = CC(C)(C)OC(=O)*

On to `Cc1ccc2c3c1O[C@H]1c4nc5ccccc5cc4C[C@@]4(O)[C@@H](C2)N(CC2CC2)CC[C@]314`, for which the TGI in assay [1] worked out at 19.2 µM; in assay [2], 15.5 µM; in assay [3], 18.3 µM; in [4] it was 19.3 µM; in assay [5], 35.8 µM; in assay [6], 35.6 µM. Also, the results for the TGI in assay [7], in [8] and in [9] were 25.4 µM, 24.7 µM and 18.7 µM, respectively.

Turning to `CN(C)c1ccc(/C=C2\N=C(c3ccccc3)N(c3nc4c(Cl)cc(Cl)cc4s3)C2=O)cc1`, the TGI in assay [1], in assay [2], in assay [3], in [4], in [5] and in assay [6] was over 100 µM throughout. For the same compound, the TGI is 77.5 µM in assay [7], over 100 µM in [8] and over 100 µM in assay [9].

With `O=C1/C(=C/c2cccs2)N=C(c2ccccc2)N1C1Nc2cc3c(cc2S1)NC(N1C(=O)/C(=C/c2cccs2)N=C1c1ccccc1)S3` (stereo not drawn), the TGI in [1] was 37.4 µM; in [2], 59.6 µM; in assay [3] it was over 100 µM; in [5], over 100 µM; in assay [6], over 100 µM; in [7], 51.7 µM. In addition, the TGI in [10] was found to be 83.2 µM; in assay [8], 61.5 µM; in assay [9], 32.7 µM.

For `CN(C)Cc1cc(C(=O)O)cc(CN(C)C)c1O`, the TGI in assay [1], in [3], in assay [4], in assay [5], in [6] and in [7] was over 100 µM in each case. Further, the TGI in assay [10], in assay [8] and in [9] was over 100 µM in each case.

For `CC(C)n1c(=O)c2nn3c(=O)n(C(C)C)c(=O)c3nn2c1=O`, the TGI in [1], in assay [2], in assay [3], in assay [4], in assay [5] and in [6] was over 100 µM throughout. In [8], this compound yielded a TGI of over 100 µM.

For `COc1cccc(-c2cc(=O)c3cc(C)cnc3[nH]2)c1`, the TGI in assay [1] is 3.17 µM; in assay [2], over 32.4 µM; in assay [3], over 100 µM; in [4] it was 1.39 µM; in assay [5], over 100 µM; in assay [7] it was 29.6 µM. Also, the TGI in assay [8] and in assay [9] was over 100 µM throughout.

Turning to `CC1=C(C#N)S(=O)(=O)c2c(oc(C)c2C)N1`, the TGI in assay [1], in [2], in [3], in assay [5], in [6] and in [7] was over 100 µM throughout. In addition, the TGI in [10], in assay [8] and in assay [9] was over 100 µM in each case.

Regarding `CN(C)c1ccc(C(c2ccc(N(C)C)cc2)c2ccc([N+](=O)[O-])cc2)cc1`, the TGI in [1], in assay [2], in assay [3], in [4], in assay [5] and in [6] was over 100 µM throughout. The TGI in assay [7], in [8] and in assay [9] was over 100 µM throughout.

Take `COc1cc(C(C#N)NNC(=O)c2ccccc2O)ccc1O` (stereo not drawn): the TGI in assay [1], in [2], in assay [3], in [4], in assay [5] and in assay [6] was over 100 µM throughout. In addition, the TGI is over 100 µM in [7], 8.46 µM in assay [10] and over 100 µM in assay [9].

For the compound `CC(=O)C(=C(I)I)c1ccccc1`, the TGI in assay [1] was 28.5 µM; in assay [2], 43.2 µM; in assay [3] it was 38.7 µM; in [4], 28.9 µM; in assay [5] it was over 100 µM; in assay [6] it was 41.4 µM. For the same compound, the TGI in assay [9] came out at 35.7 µM.

Take `CC[C@H]1C=CCC[C@@]2(C[C@@H]3CC[C@@H]4[C@H](C(=O)OCCCCCCCCCCCCCCCC(=O)N(CCCN)C[C@@H](O)CCN)[C@]5(CCC[C@@H](C)O5)NC(=[N+]34)N2)O1`: the TGI in assay [1] was 0.173 µM; in assay [2], 0.524 µM; in assay [3], 3.87 µM; in assay [4] it was 1.65 µM; in assay [5], 2.15 µM; in assay [6], 1.58 µM. Besides, the TGI in assay [7] was 0.755 µM; in [8], 2.88 µM; in assay [9], 1.68 µM.

As to `CCCCNC(=S)Nc1nc(C(=O)NNS(=O)(=O)c2ccccc2)cs1`, the TGI in assay [1] was 31 µM; in assay [2] it was over 100 µM; in [4], 38.6 µM; in assay [6] it was over 100 µM; in [7], over 100 µM; in [10] it was 76.6 µM. In [9], this compound displayed a TGI of over 100 µM.

For the compound `CO[P@]1(=O)O[C@@H](c2ccccc2)[C@H](O)[C@]1(O)c1ccccc1`, the TGI in assay [1], in assay [3], in assay [4], in assay [5], in assay [6] and in [7] was over 100 µM in each case. The TGI in assay [10], in [8] and in assay [9] was over 100 µM in each case.

Take `CSc1n[n+](C)cc(N)c1N`: the TGI in assay [1], in assay [2], in [3], in [4], in assay [6] and in assay [7] was over 100 µM each time. The TGI in [10] and in assay [9] was over 100 µM throughout.

Regarding `O=C(O)C(Cc1cccs1)C(=O)O`, the TGI in assay [1], in assay [3], in assay [4], in assay [5], in assay [6] and in assay [7] was over 100 µM each time. The TGI in [10], in assay [8] and in [9] was over 100 µM each time.

For the compound `Cc1nc2c(Br)cc(Br)cc2c(=O)n1-c1ccccc1N`, the TGI in [1] is 39 µM; in [2], over 100 µM; in assay [3], over 100 µM; in assay [4], 44 µM; in assay [5] it was over 100 µM; in assay [6], over 100 µM. For the same compound, the TGI in assay [10] is 87.3 µM; in [8], over 100 µM.

Consider `Nc1cc(CO)cc(Nc2c3ccccc3nc3occc23)c1`, for which the TGI is 58.9 µM in assay [1]; 50.1 µM in [2]; 85.7 µM in assay [4]; 64.3 µM in assay [5]; over 100 µM in assay [6]; over 100 µM in assay [7]. The results for the TGI in assay [8] and in [9] were 83.8 µM and over 100 µM, respectively.

Turning to `Clc1ccc(-c2nc(-c3ccc(Cl)cc3)[s+]s2)cc1`, the TGI in [1], in assay [2], in assay [3], in assay [4], in [5] and in assay [6] was over 100 µM each time. Moreover, the results for the TGI in [7], in assay [8] and in assay [9] were 90.6 µM, over 100 µM and over 100 µM, respectively.

`COc1cc2c(cc1OCCCC(=O)Nc1cc(C(=O)Nc3cc(C(=O)NCCCN(C)C)n(C)n3)n(C)n1)N=CC1CCCN1C2=O` (stereo not drawn): the TGI in [1] is 30.1 µM; in assay [2] it was 18.9 µM; in assay [3] it was 29.2 µM; in assay [4], 26.3 µM; in assay [5], over 100 µM; in assay [6], over 100 µM. The TGI in [7] was 40.3 µM; in assay [9], 39.5 µM.

With `O=C(c1cccs1)N(C(=O)N1CCC(c2ccccc2)CC1)c1ccccc1`, the TGI in assay [1] is 38.8 µM; in [2], over 100 µM; in assay [3], over 100 µM; in assay [4] it was 72.2 µM; in assay [5], over 100 µM; in [6], 50.9 µM. The TGI in assay [7] is 70.3 µM; in assay [8], over 100 µM; in [9] it was over 100 µM.

With `CCCCCCCCCC[C@@H](O)[C@@H]1CC[C@@H]([C@@H]2CC[C@@H]([C@@H](O)CCCCCCCCCCC(O)CC3=CC(C)OC3=O)O2)O1` (stereo partly drawn), the TGI was 2.92 µM in assay [1]; over 10 µM in assay [2]; over 10 µM in assay [3]; over 10 µM in assay [4]; over 10 µM in [5]; over 10 µM in assay [6]. The TGI in assay [7], in [10] and in assay [8] was over 10 µM in each case.

Consider `COC(=O)CC1C2CC3C(C2=O)C13` (stereo not drawn), for which the TGI in assay [1], in assay [2], in assay [3], in [4], in assay [5] and in assay [6] was over 100 µM each time. In addition, the TGI in [10], in [8] and in [9] was over 100 µM in each case.

Consider `Clc1ccc(OCc2nnc(CCCCCCCCc3nnc(COc4ccc(Cl)cc4Cl)o3)o2)c(Cl)c1`, for which the TGI in assay [1], in assay [2], in assay [3], in assay [4], in assay [5] and in [6] was over 100 µM throughout. The TGI in [7], in assay [10] and in assay [9] was over 100 µM in each case.

For `CC(NC(=O)C(NC(=O)OC(C)(C)C)C(C)C)C(=O)NCC(=O)O` (stereo not drawn) (Boc-Val-Ala-Gly-OH; configuration not given here), the TGI in assay [1], in assay [2], in assay [3], in assay [4], in assay [5] and in assay [6] was over 100 µM throughout. In addition, the TGI in [7], in assay [8] and in [9] was over 100 µM each time.

On to `COc1ccc(-c2cc(-c3ccc(Nc4ccnc5cc(Cl)ccc45)cc3)nc(N)c2C#N)c2ccccc12`, for which the TGI in assay [1], in assay [2], in [3], in assay [4], in assay [5] and in assay [6] was over 100 µM throughout. Besides, the TGI in assay [7], in [10] and in assay [9] was over 100 µM in each case.

In the case of `CCCCCC(C)C[C@H]1CO[C@H](c2ccc[nH]2)N[C@H]1C(=O)OC` (stereo partly drawn), the TGI in assay [1], in assay [2], in assay [3], in assay [4], in [5] and in assay [6] was over 100 µM each time. The TGI in assay [7], in assay [8] and in assay [9] was over 100 µM throughout.

Turning to `O=C(c1ccco1)N(C(=S)N1CCN(c2ccccc2)CC1)c1ccccc1`, the TGI in assay [1], in assay [2], in [3], in assay [4], in assay [5] and in [6] was over 100 µM in each case. Besides, the TGI in [7], in assay [10] and in [9] was over 100 µM each time.

As to `C/C(=N/O)c1cccc(Nc2nc3ccccc3c3[nH]c4ccccc4c23)c1`, the TGI in assay [1] is 4.08 µM; in [2] it was 3.55 µM; in [3], 19.4 µM; in assay [4], 7.1 µM; in assay [5] it was 4.74 µM; in assay [6], 9.92 µM. Further, the TGI in assay [10] worked out at 6.95 µM; in [8], 21.4 µM; in assay [9], 11.5 µM.

With `CC(NCCS(=O)(=O)O)C(=O)O` (stereo not drawn), the TGI in assay [1], in [2], in [3], in [4], in assay [5] and in assay [6] was over 100 µM each time. Further, the TGI in assay [7], in assay [10] and in [9] was over 100 µM throughout.

In the case of `CC1(C)CCOC(=O)C(Cl)CC1Cl` (stereo not drawn), the TGI in [1], in assay [2], in [3], in assay [4], in [5] and in assay [6] was over 100 µM throughout. Moreover, the TGI in assay [8] and in assay [9] was over 100 µM throughout.
